Laboratory results taken from patent publication US6350585B1, “Reagent for assay of amylase isozyme activity” (priority 1998, dated 2002).

Key:
[1] = target: T1, P-type amylase (Calibzyme P) (Homo sapiens, UniProt P04746); test: amylase isozyme activity assay with sodium azide as activator, P-type amylase sample; assay type: biochemical; conditions: for Percent residual enzyme activity: composition C/D
T1 construct: purchased International Reagents Corporation Calibzyme P
T1 sequence (P04746 16-511): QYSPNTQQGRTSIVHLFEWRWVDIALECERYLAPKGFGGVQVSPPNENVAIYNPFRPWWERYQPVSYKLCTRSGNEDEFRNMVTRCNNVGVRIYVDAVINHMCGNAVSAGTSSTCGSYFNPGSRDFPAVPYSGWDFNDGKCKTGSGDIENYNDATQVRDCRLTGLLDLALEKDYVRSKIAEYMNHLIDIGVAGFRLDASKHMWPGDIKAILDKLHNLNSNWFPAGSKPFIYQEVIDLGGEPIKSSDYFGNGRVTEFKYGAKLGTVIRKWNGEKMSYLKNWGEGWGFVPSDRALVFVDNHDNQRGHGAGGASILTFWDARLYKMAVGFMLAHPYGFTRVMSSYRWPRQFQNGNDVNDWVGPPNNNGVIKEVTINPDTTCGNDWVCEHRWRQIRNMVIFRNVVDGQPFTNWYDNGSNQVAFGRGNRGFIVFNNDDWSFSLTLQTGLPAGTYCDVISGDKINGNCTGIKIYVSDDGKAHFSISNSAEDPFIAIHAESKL
Procedure: S-type amylase inhibitory antibody 88E8 (manufactured by Roche Diagnostics K.K.) 20 mg/L
S-type amylase inhibitory antibody 66C7 (manufactured by Roche Diagnostics K.K.) 5 mg/L
(§1) Substrate (GalG2CNP (Example) or G3CNP (Comparative Example)) 2.6 mM
(§2) (2) P-type Amylase (Calibzyme P, Manufactured by International Reagents Corporation)
Each of the above-mentioned samples (0.05 mL) was added to respective reagent C and D (3 mL) and the mixtures were left standing at 37° C. for 3 minutes. Then, change in absorbance at 405 nm was assayed and change in absorbance per minute was calculated.
In the Tables, P is the case where P-type amylase was used as the sample, and S is the case where S-type amylase was used. The relative sensitivity of P and S is based on the change in absorbance of G3CNP as 100, wherein sodium azide was 300 mM.
Percent residual enzyme activity and relative sensitivity were calculated by the following formulas.
Percent residual enzyme activity (%)=(change in absorbance of composition C)/(change in absorbance of composition D)×100
Relative sensitivity (%)=(change in absorbance of composition D)/(change in absorbance of Comparative Example wherein sodium azide was 300 mM)×100

[2] = target: T1, P-type amylase (Calibzyme P); test: amylase isozyme activity assay with potassium thiocyanate as activator, P-type amylase sample; assay type: biochemical; conditions: for Change in absorbance, Containing Antibody (Composition A) / Change in absorbance, Without antibody (Composition B) / Relative sensitivity / Percent residual enzyme activity: P-type amylase; for Relative sensitivity: G3CNP at 900 mM = 100; for Percent residual enzyme activity: composition A/B
Procedure: A reagent for amylase isozyme activity assay comprising each composition as mentioned below was prepared. In the Table showing the composition, GalG2CNP (Example) is 2-chloro-4-nitrophenyl 4-O-β-D-galactopyranosylmaltoside, and G3CNP (Comparative Example) is 2-chloro-4-nitrophenylmaltotrioside.
S-type amylase-inhibiting antibody 88E8 (manufactured by Roche Diagnostics K.K.) 20 mg/L
S-type amylase-inhibiting antibody 66C7 (manufactured by Roche Diagnostics K.K.) 5 mg/L
as §1, §2
Each sample (0.05 mL was added to the reagent A (3 mL) and the reagent B (3 mL), respectively, and the mixtures were allowed to stand at 37° C. for 3 minutes. Then, the change in absorbance at 405 nm was assayed, and the change in absorbance per minute was calculated. The results are shown in Tables 1 and 2.
In the Tables, P is the case where P-type amylase was used as the sample, and S is the case where S-type amylase was used.
Percent residual enzyme activity (%)=(change in absorbance of composition A)/(change in absorbance of composition B)×100
Relative sensitivity (%)=(change in absorbance of composition B)/(change in absorbance of Comparative Example wherein potassium thiocyanate was 900 mM)×100

## O=[N+]([O-])c1ccc(O[C@H]2O[C@H](CO)[C@@H](O[C@H]3O[C@H](CO)[C@@H](O[C@@H]4O[C@H](CO)[C@H](O)[C@H](O)[C@H]4O)[C@H](O)[C@H]3O)[C@H](O)[C@H]2O)c(Cl)c1 [GalG2CNP, 2-chloro-4-nitrophenyl 4-O-β-D-galactopyranosylmaltoside]
[1]; sodium azide 0 mM
  Change in absorbance, Containing Antibody (Composition C): 26.4 mABS/min
  Change in absorbance, Without antibody (Composition D): 26.3 mABS/min
  Percent residual enzyme activity: 100.4%
[1]; sodium azide 0 mM, G3CNP at 300 mM = 100
  Relative sensitivity: 57.7%
[1]; sodium azide 30 mM
  Change in absorbance, Containing Antibody (Composition C): 43.6 mABS/min
  Change in absorbance, Without antibody (Composition D): 44.6 mABS/min
  Percent residual enzyme activity: 97.8%
[1]; sodium azide 30 mM, G3CNP at 300 mM = 100
  Relative sensitivity: 97.8%
[1]; sodium azide 30 mM, G3CNP at 300 mM = 100, listed as Example
  Relative sensitivity: about 98%
[1]; sodium azide 60 mM
  Change in absorbance, Containing Antibody (Composition C): 52.5 mABS/min
  Change in absorbance, Without antibody (Composition D): 52.8 mABS/min
  Percent residual enzyme activity: 99.4%
[1]; sodium azide 60 mM, G3CNP at 300 mM = 100
  Relative sensitivity: 115.8%
[1]; sodium azide 90 mM
  Change in absorbance, Containing Antibody (Composition C): 60.1 mABS/min
  Change in absorbance, Without antibody (Composition D): 59.6 mABS/min
  Percent residual enzyme activity: 100.8%
[1]; sodium azide 90 mM, G3CNP at 300 mM = 100
  Relative sensitivity: 130.7%
[1]; sodium azide 120 mM
  Change in absorbance, Containing Antibody (Composition C): 64.9 mABS/min
  Change in absorbance, Without antibody (Composition D): 63.4 mABS/min
  Percent residual enzyme activity: 102.4%
[1]; sodium azide 120 mM, G3CNP at 300 mM = 100
  Relative sensitivity: 139.0%
[1]; sodium azide 150 mM
  Change in absorbance, Containing Antibody (Composition C): 68.2 mABS/min
  Change in absorbance, Without antibody (Composition D): 68.4 mABS/min
  Percent residual enzyme activity: 99.7%
[1]; sodium azide 150 mM, G3CNP at 300 mM = 100
  Relative sensitivity: 150.0%
[1]; sodium azide 200 mM
  Change in absorbance, Containing Antibody (Composition C): 72.2 mABS/min
  Change in absorbance, Without antibody (Composition D): 70.1 mABS/min
  Percent residual enzyme activity: 103.0%
[1]; sodium azide 200 mM, G3CNP at 300 mM = 100
  Relative sensitivity: 153.7%
[1]; sodium azide 250 mM
  Change in absorbance, Containing Antibody (Composition C): 74.4 mABS/min
  Change in absorbance, Without antibody (Composition D): 72.4 mABS/min
  Percent residual enzyme activity: 102.8%
[1]; sodium azide 250 mM, G3CNP at 300 mM = 100
  Relative sensitivity: 158.8%
[1]; sodium azide 300 mM
  Change in absorbance, Containing Antibody (Composition C): 76.8 mABS/min
  Change in absorbance, Without antibody (Composition D): 75.6 mABS/min
  Percent residual enzyme activity: 101.6%
[1]; sodium azide 300 mM, G3CNP at 300 mM = 100
  Relative sensitivity: 165.8%
[2]; potassium thiocyanate 0 mM
  Change in absorbance, Containing Antibody (Composition A): 26.2 mABS/min
  Change in absorbance, Without antibody (Composition B): 26.7 mABS/min
  Relative sensitivity: 55.7%
  Percent residual enzyme activity: 98.1%
[2]; potassium thiocyanate 50 mM
  Change in absorbance, Containing Antibody (Composition A): 40.6 mABS/min
  Change in absorbance, Without antibody (Composition B): 42.1 mABS/min
  Relative sensitivity: 87.9%
  Percent residual enzyme activity: 96.4%
[2]; potassium thiocyanate 100 mM
  Change in absorbance, Containing Antibody (Composition A): 49.3 mABS/min
  Change in absorbance, Without antibody (Composition B): 51.1 mABS/min
  Relative sensitivity: 106.7%
  Percent residual enzyme activity: 96.5%
[2]; potassium thiocyanate 140 mM
  Change in absorbance, Containing Antibody (Composition A): 52.4 mABS/min
  Change in absorbance, Without antibody (Composition B): 56.0 mABS/min
  Relative sensitivity: 116.9%
  Percent residual enzyme activity: 93.6%
[2]; potassium thiocyanate 200 mM
  Change in absorbance, Containing Antibody (Composition A): 59.5 mABS/min
  Change in absorbance, Without antibody (Composition B): 61.9 mABS/min
  Relative sensitivity: 129.2%
  Percent residual enzyme activity: 96.1%
[2]; potassium thiocyanate 300 mM
  Change in absorbance, Containing Antibody (Composition A): 66.6 mABS/min
  Change in absorbance, Without antibody (Composition B): 69.1 mABS/min
  Relative sensitivity: 144.3%
  Percent residual enzyme activity: 96.4%
[2]; potassium thiocyanate 400 mM
  Change in absorbance, Containing Antibody (Composition A): 70.3 mABS/min
  Change in absorbance, Without antibody (Composition B): 71.7 mABS/min
  Relative sensitivity: 149.7%
  Percent residual enzyme activity: 98.0%
[2]; potassium thiocyanate 500 mM
  Change in absorbance, Containing Antibody (Composition A): 71.3 mABS/min
  Change in absorbance, Without antibody (Composition B): 70.9 mABS/min
  Relative sensitivity: 148.0%
  Percent residual enzyme activity: 100.6%
[2]; potassium thiocyanate 600 mM
  Change in absorbance, Containing Antibody (Composition A): 70.4 mABS/min
  Change in absorbance, Without antibody (Composition B): 68.0 mABS/min
  Relative sensitivity: 142.0%
  Percent residual enzyme activity: 103.5%
[2]; potassium thiocyanate 700 mM
  Change in absorbance, Containing Antibody (Composition A): 67.9 mABS/min
  Change in absorbance, Without antibody (Composition B): 67.2 mABS/min
  Relative sensitivity: 140.3%
  Percent residual enzyme activity: 101.0%
[2]; potassium thiocyanate 800 mM
  Change in absorbance, Containing Antibody (Composition A): 63.7 mABS/min
  Change in absorbance, Without antibody (Composition B): 62.6 mABS/min
  Relative sensitivity: 130.7%
  Percent residual enzyme activity: 101.8%
[2]; potassium thiocyanate 900 mM
  Change in absorbance, Containing Antibody (Composition A): 61.6 mABS/min
  Change in absorbance, Without antibody (Composition B): 60.1 mABS/min
  Relative sensitivity: 125.5%
  Percent residual enzyme activity: 102.5%
[2]; potassium thiocyanate 200 mM, standard = G3CNP at 900 mM
  relative sensitivity of P-type amylase as multiple of the standard sensitivity: about 1.3
